According to patent US11008572B2, “Methods and compositions for modulating splicing” (SKYHAWK THERAPEUTICS, INC., priority 2017, dated 2021):

The compounds below were run on FOXM1^A2 mRNA and FOXM1^BC mRNA (assay: Splicing assay (FOXM1), qPCR of isoform mRNAs). Details: FoxM1 A mRNA increase (exon excluded); read-out: Splice EC50 (nM) FoxM1 A mRNA increase (exon excluded).
Assay type: cell-based
Description: Various cells lines were treated with the SMSMs described herein. RNA was then isolated, cDNA synthesized, qPCR performed and the levels of various mRNA targets of the SMSMs were determined. In some instances, RNA was isolated, cDNA synthesized, qPCR performed and the levels of mRNA isoforms in the various cell samples were determined.
On the day of the experiment, a 96-well plate was seeded with the cell lines of interest. The cells were diluted with full growth media to a concentration of 2.0×10^5 cells/mL and 100 μL of cells were added to each well (20,000 cells per well). The cells were treated with a compound immediately after plating.
The compounds were then added to the cell plate using the HP compound dispenser. In the initial experiment, a top concentration of 10 μM and an 8 point 4-fold dilution scheme was used. The stock compounds were made at a concentration of 5 mM, and the DMSO concentration was set to 0.2%. DMSO was used to normalize all the compound-containing wells and the untreated cells.
The treated cells were incubated at 37° C. in a 5% CO2 incubator for the desired amount of time. Plates were placed in a plastic bag with a wet paper towel to prevent evaporation.
RNA was isolated using the Cells to CT kit (ThermoFisher, AM1728). The cells were washed once with 100 μL cold PBS. 50 μL of lysis buffer was added to each well/tube (49.5 μL lysis buffer+0.5 μL DNase I per well/tube). The lysis reaction was mixed and incubated at room temperature for 5 minutes. 5 μL of stop solution was added directly into each cell lysis reaction and mixed by pipetting up and down 5 times. The plates/tubes were incubated at room temperature for 2 minutes then placed on ice if the cDNA synthesis was to be performed immediately. Otherwise, the plates/tubes were stored at −80° C. cDNA synthesis reactions were then performed. Reverse Transcription (RT) Master mix was prepared according to the table below.
40 μL RT master mix was added to PCR tubes or plate wells. 10 μL of RNA was added to each tube/well. The RT thermal cycler program was then run and tubes or plate wells were incubated at 37° C. for 1 hour, then at 95° C. for 5 minutes to deactivate the enzyme.
The qPCR was performed using a QuantStudio 6 instrument (ThermoFisher) and the following cycling conditions and according to the tables below. All samples and standards were analyzed in triplicate. Cycle 1: 2 minutes at 50° C. Cycle 2: 10 minutes at 95° C. Cycle 3 (repeat 40 times): 15 seconds at 95° C., 1 minute at 60° C.
The determined isoform 2and isoform 1quantities were then be used to determine the isoform 2: […] at the various compound concentrations. The PPIA quantities were used in the normalization to account of cell proliferation effects of the compounds.
The dilution necessary to make the top standard is calculated. A top concentration 200,000,000 copies/μL of the stock plasmid was prepared in TE buffer. A series of 10-fold dilutions, also in TE, were then made. A total of 5 μL of each standard was used in a qPCR well to generate samples containing 109 copies, […], 10^7copies, 10^6 copies, 10^5 copies, 10^4 copies, 10^3 copies, 10^2 copies, 10^1copies, and 0 copies.
An assay to measure the FOXM1^A2 mRNA and FOXM1^BC mRNA, or MADD^WT (isoform 4) mRNA and MADD^Ex16 (isoform 3) mRNA, or MAPTau^4R mRNA and MAPTau^3R mRNA simultaneously in cell wells was performed. The RNA values were measured relative to DMSO control and also included a housekeeping gene, PPIA to ensure data was consistent. The mRNA values were measured after 24 hours of incubation with the SMSM compounds.

Row | Compound | EC50 [nM]
1 | 2-(6-(((1R,3s,5S)-1,5-dimethyl-8-azabicyclo[3.2.1]octan-3-yl)(methyl)amino)pyridazin-3-yl)-5-(4-methyl-1H-imidazol-1-yl)phenol [compound 177] | < 10

Same assay, conditions: FoxM1 BC mRNA decrease (exon included); read-out: Splice IC50 (nM) FoxM1 BC mRNA decrease (exon included)

Row | Compound | IC50 [nM]
2 | 2-(6-(((1R,3s,5S)-1,5-dimethyl-8-azabicyclo[3.2.1]octan-3-yl)(methyl)amino)pyridazin-3-yl)-5-(4-methyl-1H-imidazol-1-yl)phenol [compound 177] | < 10

What follows are compounds tested on A-673 cells (assay: Cell viability, crystal violet staining). Details: Homo sapiens, A673, cell viability, read-out: A-673 IC50 (nM) Cell viability.
Assay type: cell-based
Description: To measure cell viability, cells were plated in 96-well plastic tissue culture plates at a density of 5×10^3 cells/well. Twenty-four hours after plating, cells were treated with various SMSMs. After 72 hours, the cell culture media were removed and plates were stained with […] of a solution containing 0.5% crystal violet and 25% methanol, rinsed with deionized water, dried overnight, and resuspended in […] citrate buffer (0.1 M sodium citrate in 50% ethanol) to assess plating efficiency. Intensity of crystal violet staining, assessed at 570 nm and quantified using a Vmax Kinetic Microplate Reader and Softmax software (Molecular Devices Corp., Menlo Park, Calif.), were directly proportional to cell number. Data were normalized to vehicle-treated cells and were presented as the mean±SE from representative experiments. SMSMs that are effective were determined for various cells lines.
A-673 cell viability […], splicing (IC50) and brain AUC/Plasma AUC of SMSMs were determined. As shown in the tables below SMSMs had high CNS exposure.

Row | Compound | IC50 [nM]
3 | Oc1cc(-c2cn[nH]c2)ccc1-c1ccc(N2CCC23CCNCC3)nn1 [compound 132, 2-(6-(1,7-diazaspiro[3.5]nonan-1-yl)pyridazin-3-yl)-5-(1H-pyrazol-4-yl)phenol] | > 1000
4 | CN(c1ccc(-c2ccc(-c3cn[nH]c3)cc2O)nn1)[C@@H]1C[C@]2(C)CC[C@](C)(C1)N2 [compound 150, 2-(6-(((1R,3r,5S)-1,5-dimethyl-8-azabicyclo[3.2.1]octan-3-yl)(methyl)amino)pyridazin-3-yl)-5-(1H-pyrazol-4-yl)phenol] | > 1000
5 | CN(c1ccc(-c2ccc(-c3cn[nH]c3)cc2O)nn1)[C@H]1C[C@]2(C)COC[C@](C)(C1)N2 [compound 156, 2-(6-(((1R,5S,7r)-1,5-dimethyl-3-oxa-9-azabicyclo[3.3.1]nonan-7-yl)(methyl)amino)pyridazin-3-yl)-5-(1H-pyrazol-4-yl)phenol] | 10 to 100
6 | CN(c1ccc(-c2ccc(-c3cn[nH]c3)cc2O)nn1)[C@@H]1C[C@]2(C)COC[C@](C)(C1)N2 [compound 157, 2-(6-(((1R,5S,7s)-1,5-dimethyl-3-oxa-9-azabicyclo[3.3.1]nonan-7-yl)(methyl)amino)pyridazin-3-yl)-5-(1H-pyrazol-4-yl)phenol] | > 1000
7 | COc1ccc2cc(-c3ccc(N(C)[C@@H]4C[C@H]5CC[C@@H](C4)N5)nn3)c(O)cc2c1 [compound 163, 3-(6-(((1R,3s,5S)-8-azabicyclo[3.2.1]octan-3-yl)(methyl)amino)pyridazin-3-yl)-7-methoxynaphthalen-2-ol] | 101 to 250
8 | CN(c1ccc(-c2cc3ccc(OCF)cc3cc2O)nn1)[C@@H]1C[C@H]2CC[C@@H](C1)N2 [compound 165, 3-(6-(((1R,3s,5S)-8-azabicyclo[3.2.1]octan-3-yl)(methyl)amino)pyridazin-3-yl)-7-(fluoromethoxy)naphthalen-2-ol] | 10 to 100
9 | CN(c1ccc(-c2cc3ccc(OC(F)F)cc3cc2O)nn1)[C@@H]1C[C@H]2CC[C@@H](C1)N2 [compound 166, 3-(6-(((1R,3s,5S)-8-azabicyclo[3.2.1]octan-3-yl)(methyl)amino)pyridazin-3-yl)-7-(difluoromethoxy)naphthalen-2-ol] | 501 to 1000
10 | [2H]C([2H])([2H])n1cc(-c2ccc(-c3ccc(N(C)[C@H]4C[C@]5(C)CC[C@](C)(C4)N5)nn3)c(O)c2)cn1 [compound 171, 2-(6-(((1R,3s,5S)-1,5-dimethyl-8-azabicyclo[3.2.1]octan-3-yl)(methyl)amino)pyridazin-3-yl)-5-(1-(methyl-d3)-1H-pyrazol-4-yl)phenol] | 10 to 100
11 | [2H]C([2H])([2H])Oc1cc(-c2ccc(-c3ccc(N(C)[C@H]4C[C@]5(C)CC[C@](C)(C4)N5)nn3)c(O)c2)ccn1 [compound 172, 2-(6-(((1R,3s,5S)-1,5-dimethyl-8-azabicyclo[3.2.1]octan-3-yl)(methyl)amino)pyridazin-3-yl)-5-(2-(methoxy-d3)pyridin-4-yl)phenol] | < 10
12 | COc1cc(-c2ccc(-c3ccc(N(C)[C@H]4C[C@]5(C)CC[C@](C)(C4)N5)nn3)c(O)c2)ccn1 [compound 173, 2-(6-(((1R,3s,5S)-1,5-dimethyl-8-azabicyclo[3.2.1]octan-3-yl)(methyl)amino)pyridazin-3-yl)-5-(2-methoxypyridin-4-yl)phenol] | < 10
13 | CN(c1ccc(-c2ccc(-c3cnn(CF)c3)cc2O)nn1)[C@H]1C[C@]2(C)CC[C@](C)(C1)N2 [compound 174, 2-(6-(((1R,3s,5S)-1,5-dimethyl-8-azabicyclo[3.2.1]octan-3-yl)(methyl)amino)pyridazin-3-yl)-5-(1-(fluoromethyl)-1H-pyrazol-4-yl)phenol] | < 10
14 | CN(c1ccc(-c2ccc(-n3cc(F)cn3)cc2O)nn1)[C@H]1C[C@]2(C)CC[C@](C)(C1)N2 [compound 175, 2-(6-(((1R,3s,5S)-1,5-dimethyl-8-azabicyclo[3.2.1]octan-3-yl)(methyl)amino)pyridazin-3-yl)-5-(4-fluoro-1H-pyrazol-1-yl)phenol] | 10 to 100
15 | CN(c1ccc(-c2ccc(-n3cnc(F)c3)cc2O)nn1)[C@H]1C[C@]2(C)CC[C@](C)(C1)N2 [compound 176, 2-(6-(((1R,3s,5S)-1,5-dimethyl-8-azabicyclo[3.2.1]octan-3-yl)(methyl)amino)pyridazin-3-yl)-5-(4-fluoro-1H-imidazol-1-yl)phenol] | 10 to 100
16 | Cc1cc(-c2ccc(N(C)[C@H]3C[C@]4(C)CC[C@](C)(C3)N4)nn2)c(O)cc1-c1ccn(C)c(=O)c1 [compound 178, 4-(4-(6-(((1R,3s,5S)-1,5-dimethyl-8-azabicyclo[3.2.1]octan-3-yl)(methyl)amino)pyridazin-3-yl)-5-hydroxy-2-methylphenyl)-1-methylpyridin-2(1H)-one] | 251 to 500
17 | CN(c1ccc(-c2ccc(-c3cnn(C(F)F)c3)cc2O)nn1)[C@H]1C[C@]2(C)CC[C@](C)(C1)N2 [compound 179, 5-(1-(difluoromethyl)-1H-pyrazol-4-yl)-2-(6-(((1R,3s,5S)-1,5-dimethyl-8-azabicyclo[3.2.1]octan-3-yl)(methyl)amino)pyridazin-3-yl)phenol] | 10 to 100
18 | CN(c1ccc(-c2ccc(-c3ncn(C)c(=O)n3)cc2O)nn1)[C@H]1C[C@]2(C)CC[C@](C)(C1)N2 [compound 181, 4-(4-(6-(((1R,3s,5S)-1,5-dimethyl-8-azabicyclo[3.2.1]octan-3-yl)(methyl)amino)pyridazin-3-yl)-3-hydroxyphenyl)-1-methyl-1,3,5-triazin-2(1H)-one] | 251 to 500
19 | CN(c1ccc(-c2ccc(-c3cc[nH]c(=O)c3)cc2O)nn1)[C@H]1C[C@]2(C)CC[C@](C)(C1)N2 [compound 183, 4-(4-(6-(((1R,3s,5S)-1,5-dimethyl-8-azabicyclo[3.2.1]octan-3-yl)(methyl)amino)pyridazin-3-yl)-3-hydroxyphenyl)pyridin-2(1H)-one] | 10 to 100
20 | CN(c1ccc(-c2cc(F)c(-c3cc[nH]c(=O)c3)cc2O)nn1)[C@H]1C[C@]2(C)CC[C@](C)(C1)N2 [compound 184, 4-(4-(6-(((1R,3s,5S)-1,5-dimethyl-8-azabicyclo[3.2.1]octan-3-yl)(methyl)amino)pyridazin-3-yl)-2-fluoro-5-hydroxyphenyl)pyridin-2(1H)-one] | 10 to 100
21 | CN(c1ccc(-c2ccc(-c3ccnc(OC(F)F)c3)cc2O)nn1)[C@H]1C[C@]2(C)CC[C@](C)(C1)N2 [compound 185, 5-(2-(difluoromethoxy)pyridin-4-yl)-2-(6-(((1R,3s,5S)-1,5-dimethyl-8-azabicyclo[3.2.1]octan-3-yl)(methyl)amino)pyridazin-3-yl)phenol] | 501 to 1000
